Experimental data published in US20240374572A1, “METHODS FOR EXTENDING THE LIFESPAN OF CELLS AND ORGANISMS” (priority 2021, published 2024).

Legend:
N2 C. elegans = test: Lifespan of N2 C. elegans under regular culture conditions; format: in vivo, Caenorhabditis elegans; settings: FIG. 2A
From the text: In this example, the biological functions of ergothioneine were investigated using (C. elegans as the model system. Using (C. elegans as the model has several prominent advantages, including short life cycle, simple experimental manipulation, and rich collection of publicly available genetic mutants (e.g., Caenorhabditis Genetics Center). In addition, its genome comprises 2/3 of human disease-related genes.
To test the biological effect of ergothioneine, the first set of experiments was to test the toxicity level of ergothioneine on the worm model. In humans, ergothioneine is enriched up to 2 mM concentration in many parts of the body.
(§1) At 150 μM, the lifespan of the wild type worm can be extended by 30-40% (FIG. 2A). Over the last two decades, there is numerous evidence supporting the life-extension effect by caloric restriction from various model systems (yeast, worm, fly, and mouse). Thus, the effect of ergothioneine on worm Eat-2 mutant was also examined.

worm Eat-2 mutant = test: Lifespan of worm Eat-2 mutant (caloric restriction model); format: in vivo, Caenorhabditis elegans; settings: FIG. 2B
Method: as §1

N2 worms = test: Paraquat-induced oxidative stress in N2 worms; format: in vivo, Caenorhabditis elegans; settings: FIG. 2C
Method: Encouraged by the clear life-extension effect on worm model under regular culture conditions in the above example, the protective effect of ergothioneine under stresses was examined. In the first experiment, the worm was treated with paraquat to induce oxidative stress. Under the paraquat-induced oxidative stress conditions, N2 worms' life span was decreased by nearly 50% (FIG. 2C vs. FIG. 2A).

N2 worm = test: Heat shock survival of N2 worms; format: in vivo, Caenorhabditis elegans; settings: moved from 20° C. to 42° C.; a few hundred micromolar; without compound 3 hours; FIG. 2D
Method: Besides the oxidative stress, the protective effect of ergothioneine for the worm under heat shock conditions was also examined. After the worms were cultured multiple days, they were then moved from 20° C. to 42° C. Under such a heat-shock condition, 50% of the worm died within 3 hours. However, in the presence of a few hundred micromolar concentration of ergothioneine, it extends N2 worm's average survival time from 3 hours to nearly 8-9 hours (FIG. 2D). Therefore, besides its life-extension effects under regular culture conditions, ergothioneine clearly offers protective effects to worms under oxidative stress and heat shock conditions.

daf-16 mutant worm = test: Lifespan of daf-16 mutant worm; format: in vivo, Caenorhabditis elegans; settings: FIG. 3A
From the text: To address this issue, the large collection of C. elegans mutants in Caenorhabditis Genetics Center was again utilized in this example. Among the mutants examined, the daf-16 mutant results stood out (FIGS. 3A, 3B, and 3C). […] Among genes of the IIS pathway, daf-2 encodes an insulin-like receptor, and it is the starting point of the pathway that eventually leads to daf-16. Daf-16 is the hub, where information from several different pathways merge and then use to regulate many physiological processes. Worm daf-16 mutant has an average life-span that is […] the N2 worm (FIGS. 3A, 3B, and 3C; FIGS. 4-6).

[1] = system: accelerated ageing mouse model; test: Accelerated ageing mouse model; format: in vivo
From the text: FIGS. 5A, 5B, 5C, and 5D show the animal study in rats (FIG. 5A: untreated disease group; FIG. 5B treated disease group).
Another aspect provides a method of treating a subject diagnosed to have a premature ageing disease or condition, comprising treating the subject with a therapeutically effective amount of compound I. In some embodiments, the premature ageing disease is Hutchinson-Gilford progeria syndrome. In some embodiments, the premature ageing disease is Werner syndrome. In some embodiments, the premature ageing disease or condition is premature ageing of skin, mucous membranes, scalp and/or hair of the subject. In some embodiments, the method may further include a step of identifying or determining the subject as having premature ageing disease or condition. Procedures of the determination step for premature ageing disease or condition are generally known in the field. As shown in the example section and FIGS. 4-6, the study (accelerated ageing mouse model) analyzed the physical appearance and activities of two groups (with and without the feeding of Compound I, 20 mg/kg daily) over the period of about 1 year.

[2] = system: primary cortical neuron culture; test: Oxygen glucose deprivation of primary cortical neuron culture; format: cell-based; settings: FIG. 5D
[3] = system: stroke middle cerebral artery occlusion (MCAO) model; test: Stroke middle cerebral artery occlusion (MCAO) model; format: in vivo; settings: MCAO mice, vs vehicle
From the text: FIGS. 7A, 7B, 7C, and 7D show the protective effect of ergothioneine on stroke MCAO model (images of tissue sample (FIG. 7A), infarct volume (FIG. 7B), neurological deficit (FIG. 7C), and cerebral blood flow (CBF) (FIG. 7D) of Sham, vehicle, and ergothioneine treated mice).
The MCAO model is a stroke model that uses mice and rats. The model involves inserting a surgical filament into the external carotid artery and threading it into the internal carotid artery. The filament is inserted to block blood flow for a set period of time, usually 30-120 minutes. The filament is then removed to allow reperfusion, resulting in an ischemic stroke. A sham mouse is a control animal used in […]. Sham procedures are performed on a control group participant to ensure they experience the same effects as those who receive a true operation.
As shown, ergothioneine reduces the infarct size by at least 50%. […] As shown, ergothioneine reduces neurological deficit by at least 40%. […] As shown, ergothioneine […] cerebral blood flow by at least 60%.

[4] = system: pancreatic/renal kallikrein (Klk1) related Kallikrein system; test: RNA-seq analysis of peri-infarct area of the MCAO model; format: in vivo, mice; settings: FIG. 8
From the text: FIGS. 8A and 8B that the results of RNA-seq analysis of peri-infarct area of the MCAO model.
KLK1 is a key protein in the Kallikrein-Kinin system (KKS). The KKS promotes local blood flow and vasodilation, and may also reduce inflammation and oxidative stress. KLK1 is a serine protease that plays a critical role in regulating blood pressure, blood flow, and microcirculation. It's a secretory product of the salivary glands and the pancreas, and is also found in the kidney. KLK1 has a major function of reducing blood pressure by releasing the peptide hormone Lys-bradykinin (kallidin) from low molecular weight kininogen. This affects muscle relaxation and inflammatory processes. KLK1 also has anti-inflammatory, anti-apoptotic, anti-fibrotic, and anti-oxidative actions.

[5] = through transporter OCTN1; humans; cited from earlier work
[6] = in vivo; cited from earlier work
[7] = system: adhesion molecules VACM-1, ICAM-1, and E-selectin; settings: cited from earlier work
[8] = 20 mg/kg daily feeding, about 1 year, treated vs untreated group
[9] = mice, compared to untreated mice, FIG. 5C

Compound: C[N+](C)(C)[C@@H](Cc1c[nH]c(=S)[nH]1)C(=O)O [ergothioneine, Ergothioneine]
- life-extension effect (N2 C. elegans; 50 μM, N2 C. elegans): robust life-extension effect
- lifespan extension (N2 C. elegans; 150 μM, wild type worm): 30-40%
- life extension of Eat-2 worm mutant (worm Eat-2 mutant): can further extend the life
- protective effect under oxidative stress (N2 worms): clearly offers protective effects and alleviates the detrimental effects of oxidative stress
- average survival time under heat shock (N2 worm): 8 to 9 h
- life-extension effect in daf-16 mutant (daf-16 mutant worm): the life-extension effect was abolished
- effect on the ageing process ([1]; 20 mg/kg daily feeding, about 1 year): could effectively slow down the ageing process
- average weight [1, 8]: higher average weight
- skin condition [1, 8]: more smooth skin condition
- physical activity of the untreated group relative to the treated group ([1]; 20 mg/kg daily feeding, about 1 year, words describe the group without treatment): less active physically
- extension of maximum lifespan [1, 9]: at least 30%
- extension of median lifespan [1, 9]: at least 40%
- cell death caused by oxygen glucose deprivation [2]: reverses cell death
- reduction of infarct size ([3]; FIG. 7B): at least 50%
- reduction of neurological deficit ([3]; FIG. 7C): at least 40%
- reduction of cerebral blood flow (CBF) ([3]; FIG. 7D): at least 60%
- regulation of Klk1 related Kallikrein system (RNA level) [4]: up-regulate
- concentration accumulated in many parts of the body [5]: up to 2 mM
- blood-brain barrier passage [6]: can pass through the blood-brain barrier
- expression of adhesion molecules VACM-1, ICAM-1, and E-selectin [7]: decreases the expression
